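Five compound concentrations were applied to cells in 96-well plates for 48 hours; endpoints were derived by simple linear interpolation of the resulting dose-response curve. GI50: concentration for 50% inhibition of growth.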 Active and inactive are the calls of the source. No stated cut-off is given here; in the data, active = GI50 up to about 1.1 µM and inactive = higher.
Key:
Assay in all cases: inhibition of tumour cell growth, NCI panel, 48 h
SF-295 = test system: SF-295
SN12C = test system: SN12C
SF-268 = test system: SF-268
LOX IMVI = test system: LOX IMVI
TK-10 = test system: TK-10
M14 = test system: M14
A549 = test system: A549
OVCAR-5 = test system: OVCAR-5
HOP-62 = test system: HOP-62
U-251 = test system: U-251
DMS-114 = test system: DMS-114
COLO 205 = test system: COLO 205
SK-MEL-28 = test system: SK-MEL-28
NCI-H522 = test system: NCI-H522
IGROV-1 = test system: IGROV-1
UACC-62 = test system: UACC-62
ACHN = test system: ACHN
EKVX = test system: EKVX
HCC 2998 = test system: HCC 2998
SW-620 = test system: SW-620
SNB-19 = test system: SNB-19
M19-MEL = test system: M19-MEL
HCT-116 = test system: HCT-116
HCT-15 = test system: HCT-15
XF498 = test system: XF498
OVCAR-4 = test system: OVCAR-4
OVCAR-8 = test system: OVCAR-8
CAKI-1 = test system: CAKI-1
786-0 = test system: 786-0
KM12 = test system: KM12
SK-MEL-5 = test system: SK-MEL-5
SNB-75 = test system: SNB-75
UO-31 = test system: UO-31
CCRF-CEM = test system: CCRF-CEM
NCI-H23 = test system: NCI-H23
OVCAR-3 = test system: OVCAR-3
HOP-92 = test system: HOP-92
NCI-H226 = test system: NCI-H226
SNB-78 = test system: SNB-78
RPMI-8226 = test system: RPMI-8226
KM-20L2 = test system: KM-20L2
DMS-273 = test system: DMS-273
SR = test system: SR
NCI-H460 = test system: NCI-H460
MOLT-4 = test system: MOLT-4
Malme-3M = test system: Malme-3M
SK-OV-3 = test system: SK-OV-3
SF-539 = test system: SF-539
HT-29 = test system: HT-29
K562 = test system: K562
DLD-1 = test system: DLD-1
LXFL 529 = test system: LXFL 529
RXF 393 = test system: RXF 393
A498 = test system: A498
SK-MEL-2 = test system: SK-MEL-2
UACC-257 = test system: UACC-257
HL-60 = test system: HL-60
HOP-18 = test system: HOP-18

Structure (SMILES): CC(=O)OCC1OC(OC2C(CSC3OC(COC(C)=O)C(OC(C)=O)C(OC(C)=O)C3OC(C)=O)OC(OC(C)=O)C(OC(C)=O)C2OC(C)=O)C(OC(C)=O)C(OC(C)=O)C1OC(C)=O (centres undefined)
- GI50 (SF-295): > 100 µM (inactive)
- GI50 (SN12C): > 100 µM (inactive)
- GI50 (SF-268): > 100 µM (inactive)
- GI50 (LOX IMVI): > 100 µM (inactive)
- GI50 (TK-10): > 100 µM (inactive)
- GI50 (M14): > 100 µM (inactive)
- GI50 (A549): > 100 µM (inactive)
- GI50 (OVCAR-5): 23.7 µM (inactive)
- GI50 (HOP-62): > 100 µM (inactive)
- GI50 (U-251): > 100 µM (inactive)
- GI50 (DMS-114): > 100 µM (inactive)
- GI50 (COLO 205): > 100 µM (inactive)
- GI50 (SK-MEL-28): > 100 µM (inactive)
- GI50 (NCI-H522): > 100 µM (inactive)
- GI50 (IGROV-1): > 100 µM (inactive)
- GI50 (UACC-62): > 100 µM (inactive)
- GI50 (ACHN): > 100 µM (inactive)
- GI50 (EKVX): > 100 µM (inactive)
- GI50 (HCC 2998): > 100 µM (inactive)
- GI50 (SW-620): > 100 µM (inactive)
- GI50 (SNB-19): > 100 µM (inactive)
- GI50 (M19-MEL): > 100 µM (inactive)
- GI50 (HCT-116): > 100 µM (inactive)
- GI50 (HCT-15): > 100 µM
- GI50 (XF498): > 100 µM (inactive)
- GI50 (OVCAR-4): > 100 µM (inactive)
- GI50 (OVCAR-8): > 100 µM (inactive)
- GI50 (CAKI-1): > 100 µM (inactive)
- GI50 (786-0): > 100 µM (inactive)
- GI50 (KM12): > 100 µM (inactive)
- GI50 (SK-MEL-5): > 100 µM (inactive)
- GI50 (SNB-75): > 100 µM (inactive)
- GI50 (UO-31): > 100 µM (inactive)
- GI50 (CCRF-CEM): > 100 µM (inactive)
- GI50 (NCI-H23): > 100 µM (inactive)
- GI50 (OVCAR-3): > 100 µM (inactive)
- GI50 (HOP-92): > 100 µM (inactive)
- GI50 (NCI-H226): 47.5 µM (inactive)
- GI50 (SNB-78): > 100 µM (inactive)
- GI50 (RPMI-8226): > 100 µM (inactive)
- GI50 (KM-20L2): > 100 µM (inactive)
- GI50 (DMS-273): > 100 µM (inactive)
- GI50 (SR): > 100 µM (inactive)
- GI50 (NCI-H460): > 100 µM (inactive)
- GI50 (MOLT-4): > 100 µM (inactive)
- GI50 (Malme-3M): > 100 µM (inactive)
- GI50 (SK-OV-3): > 100 µM (inactive)
- GI50 (SF-539): > 100 µM (inactive)
- GI50 (HT-29): > 100 µM (inactive)
- GI50 (K562): > 100 µM (inactive)
- GI50 (DLD-1): > 100 µM (inactive)
- GI50 (LXFL 529): > 100 µM (inactive)

Structure (SMILES): COc1cccc(C2=NC(C(C)C)CO2)c1OC (centres undefined)
- GI50 (RXF 393): > 100 µM (inactive)
- GI50 (SF-295): > 100 µM (inactive)
- GI50 (SN12C): > 100 µM (inactive)
- GI50 (SF-268): > 100 µM (inactive)
- GI50 (A498): > 100 µM (inactive)
- GI50 (LOX IMVI): > 100 µM (inactive)
- GI50 (TK-10): > 100 µM (inactive)
- GI50 (M14): > 100 µM (inactive)
- GI50 (A549): > 100 µM (inactive)
- GI50 (OVCAR-5): > 100 µM (inactive)
- GI50 (HOP-62): > 100 µM (inactive)
- GI50 (DMS-114): > 100 µM (inactive)
- GI50 (COLO 205): > 100 µM (inactive)
- GI50 (SK-MEL-28): > 100 µM (inactive)
- GI50 (NCI-H522): > 100 µM (inactive)
- GI50 (SK-MEL-2): > 100 µM (inactive)
- GI50 (IGROV-1): > 100 µM (inactive)
- GI50 (UACC-62): > 100 µM (inactive)
- GI50 (ACHN): > 100 µM (inactive)
- GI50 (EKVX): > 100 µM (inactive)
- GI50 (HCC 2998): > 100 µM (inactive)
- GI50 (SW-620): > 100 µM (inactive)
- GI50 (SNB-19): > 100 µM (inactive)
- GI50 (M19-MEL): > 100 µM (inactive)
- GI50 (HCT-15): > 100 µM
- GI50 (XF498): > 100 µM (inactive)
- GI50 (OVCAR-4): > 100 µM (inactive)
- GI50 (UACC-257): > 100 µM (inactive)
- GI50 (OVCAR-8): > 100 µM (inactive)
- GI50 (CAKI-1): > 100 µM (inactive)
- GI50 (786-0): > 100 µM (inactive)
- GI50 (KM12): > 100 µM (inactive)
- GI50 (SK-MEL-5): > 100 µM (inactive)
- GI50 (SNB-75): > 100 µM (inactive)
- GI50 (UO-31): > 100 µM (inactive)
- GI50 (HL-60): > 100 µM (inactive)
- GI50 (CCRF-CEM): > 100 µM (inactive)
- GI50 (NCI-H23): > 100 µM (inactive)
- GI50 (OVCAR-3): > 100 µM (inactive)
- GI50 (HOP-92): > 100 µM (inactive)
- GI50 (NCI-H226): > 100 µM (inactive)
- GI50 (SNB-78): > 100 µM (inactive)
- GI50 (RPMI-8226): > 100 µM (inactive)
- GI50 (KM-20L2): > 100 µM (inactive)
- GI50 (DMS-273): > 100 µM (inactive)
- GI50 (NCI-H460): > 100 µM (inactive)
- GI50 (MOLT-4): > 100 µM (inactive)
- GI50 (Malme-3M): > 100 µM (inactive)
- GI50 (SK-OV-3): > 100 µM (inactive)
- GI50 (SF-539): > 100 µM (inactive)
- GI50 (HT-29): > 100 µM (inactive)
- GI50 (K562): > 100 µM (inactive)
- GI50 (DLD-1): > 100 µM (inactive)
- GI50 (LXFL 529): > 100 µM (inactive)

Structure (SMILES): CCCCNC1=C(C(=O)OCC)C(=O)CO1
- GI50 (RXF 393): > 100 µM (inactive)
- GI50 (SF-295): > 100 µM (inactive)
- GI50 (SN12C): > 100 µM (inactive)
- GI50 (SF-268): > 100 µM (inactive)
- GI50 (LOX IMVI): > 100 µM (inactive)
- GI50 (TK-10): > 100 µM (inactive)
- GI50 (M14): > 100 µM (inactive)
- GI50 (A549): > 100 µM (inactive)
- GI50 (OVCAR-5): > 100 µM (inactive)
- GI50 (HOP-62): > 100 µM (inactive)
- GI50 (U-251): > 100 µM (inactive)
- GI50 (DMS-114): > 100 µM (inactive)
- GI50 (COLO 205): > 100 µM (inactive)
- GI50 (SK-MEL-28): > 100 µM (inactive)
- GI50 (NCI-H522): > 100 µM (inactive)
- GI50 (SK-MEL-2): > 100 µM (inactive)
- GI50 (IGROV-1): > 100 µM (inactive)
- GI50 (UACC-62): > 100 µM (inactive)
- GI50 (ACHN): > 100 µM (inactive)
- GI50 (EKVX): > 100 µM (inactive)
- GI50 (HCC 2998): > 100 µM (inactive)
- GI50 (SW-620): > 100 µM (inactive)
- GI50 (SNB-19): > 100 µM (inactive)
- GI50 (M19-MEL): > 100 µM (inactive)
- GI50 (HCT-15): > 100 µM
- GI50 (XF498): > 100 µM (inactive)
- GI50 (OVCAR-4): > 100 µM (inactive)
- GI50 (UACC-257): > 100 µM (inactive)
- GI50 (OVCAR-8): > 100 µM (inactive)
- GI50 (CAKI-1): > 100 µM (inactive)
- GI50 (786-0): > 100 µM (inactive)
- GI50 (KM12): > 100 µM (inactive)
- GI50 (SK-MEL-5): > 100 µM (inactive)
- GI50 (SNB-75): 80.2 µM (inactive)
- GI50 (UO-31): > 100 µM (inactive)
- GI50 (HL-60): > 100 µM (inactive)
- GI50 (HOP-18): > 100 µM (inactive)
- GI50 (CCRF-CEM): > 100 µM (inactive)
- GI50 (NCI-H23): > 100 µM (inactive)
- GI50 (OVCAR-3): > 100 µM (inactive)
- GI50 (NCI-H226): > 100 µM (inactive)
- GI50 (RPMI-8226): > 100 µM (inactive)
- GI50 (KM-20L2): > 100 µM (inactive)
- GI50 (DMS-273): > 100 µM (inactive)
- GI50 (NCI-H460): > 100 µM (inactive)
- GI50 (MOLT-4): > 100 µM (inactive)
- GI50 (Malme-3M): > 100 µM (inactive)
- GI50 (SK-OV-3): > 100 µM (inactive)
- GI50 (SF-539): > 100 µM (inactive)
- GI50 (HT-29): > 100 µM (inactive)
- GI50 (K562): > 100 µM (inactive)
- GI50 (DLD-1): > 100 µM (inactive)
- GI50 (LXFL 529): > 100 µM (inactive)

Source: ChEMBL document CHEMBL1201862, “PubChem BioAssay data set” (2004)
